Measurements taken from PMC9038204, “SNX27–Retromer directly binds ESCPE-1 to transfer cargo proteins during endosomal recycling” (PLoS Biology, 2022).
Like-named read-outs stand apart in the source and are kept apart here. Where no end group is shown, it is not given here.

Tests used:
[1] = system: SNX6; assay: GFP trap co-immunoprecipitation from HEK-293T, quantitative western blot: SNX6; type: binding; details: Fig. 3F, GFP-tagged SNX1 WT or mutant as bait, WT set to 100, mean of n = 4
Procedure: (§1) HeLa and HEK-293T cell lines were sourced from ATCC. Authentication was from the ATCC. Cells were grown in DMEM (Sigma-Aldrich) supplemented with 10% (v/v) FCS (Sigma-Aldrich) and penicillin/streptomycin (Gibco, USA) and grown under standard conditions. FuGENE HD (Promega, USA) was used for transient transfection of DNA according to the manufacturer’s instructions. Cycloheximide was used to prevent up-regulation of protein synthesis. In this case, cycloheximide (C7698; Sigma-Aldrich) at 10 μg/ml was added to the cells 48 hours after FuGENE transfection for the indicated time points. For the generation of CRISPR-Cas9 SNX27 knockout HeLa cells, HeLa cells were transfected with pX330 plasmid coding for the gRNA against the gene of interest together with a puromycin resistance–expressing plasmid. Cells were then subjected to puromycin selection for 24 hours. The pooled population of cells was subjected to lysis and western blotting to confirm the knockout. The VPS35 knockout clonal cell line used in this study was characterized previously. For GFP-based immunoprecipitations, HEK293T cells were transfected with GFP constructs using polyethylenimine (Sigma-Aldrich) and expression was allowed for 48 hours.
(§2) For western blotting, cells were lysed in PBS with 1% (v/v) Triton X-100 and protease inhibitor cocktail. The protein concentration was determined with a BCA assay kit (Thermo Fisher Scientific, USA), and equal amounts were resolved on NuPAGE 4% to 12% precast gels (Invitrogen, USA). Blotting was performed onto polyvinylidene fluoride membranes (Immobilon-FL; EMD Millipore, USA) followed by detection using the Odyssey infrared scanning system (LI-COR Biosciences, USA). For GFP-based immunoprecipitations, HEK-293T cells were lysed 48 hours after transfection in immunoprecipitation buffer (50 mM Tris-HCl, 0.5% (v/v) NP-40, and Roche protease inhibitor cocktail) and subjected to GFP trap (ChromoTek, Germany). Immunoblotting was performed using standard procedures. Detection was performed on an Odyssey infrared scanning system (LI-COR Biosciences) using fluorescently labeled secondary antibodies. In using the Odyssey, we routinely performed western blot analysis where a single blot is simultaneously probed with antibodies against 2 proteins of interest (distinct antibody species) followed by visualization with the corresponding secondary antibodies conjugated to distinct spectral dyes.

[2] = system: SNX27; assay: GFP trap co-immunoprecipitation of GFP-SNX1/SNX2 constructs from HEK-293T, quantitative western blot: SNX27; type: binding; details: for SNX27 co-immunoprecipitated (quantitative western blot), mean: Fig. 3F, GFP-tagged SNX1 WT or mutant as bait, HEK-293T, WT set to 100, mean of n = 4; for reduced binding to SNX27: full-length GFP-SNX1 point mutants in HEK293T, versus SNX1 WT
Procedure: as §1, §2

[3] = target: T1, full-length mouse SNX27 (mSNX27FL) (Mus musculus, UniProt Q3UHD6); assay: ITC, hSNX1/2 peptides against mSNX27FL; type: binding; details: 25°C, 50 mM HEPES pH 7.5, 200 mM NaCl, 5% glycerol, 1 mM β-ME, 800 μM peptide titrated into 20 μM mSNX27FL, single-site fit, mean of at least 2 experiments
T1 construct: DNA encoding full-length mouse SNX27 (mSNX27FL hereafter) was inserted into the pMCSG7 vector; made in house; host or cells: Escherichia coli BL21 CodonPlus (DE3)
Procedure: Human SNX1 and SNX2 peptide sequences were synthesized by Genscript (USA). To obtain the peptide stock solutions at neutral pH, 100 mM Tris-HCl, pH 10.6 was used to dissolve the peptide to a final concentration of 8 mM. The peptides were SNX1_35-51 […], SNX135-51(D45K) […], SNX1_75-92 […], SNX2_16-33 […], SNX2_16-33(DLF/SSS) […], and SNX2_62-82 […].
All microcalorimetry experiments were conducted at 25°C using a PEAQ ITC (Malvern, UK) in 50 mM HEPES (pH 7.5), 200 mM NaCl, 5% glycerol, and 1 mM β-ME (ITC buffer). All proteins were purified by SEC using the same buffer prior to ITC experiments to avoid buffer mismatches. To measure binding of SNX27 to SNX1 proteins, 800 μM of hSNX27FERM was titrated into 20 μM of GST-mSNX1_1-139 or His-SNX1FL. For the binding of SNX1 and SNX2 peptides to SNX27, peptides were diluted 10-fold to 800 μM in ITC buffer peptides and titrated into 20 μM SNX27FL proteins containing the same 1:10 ratio of peptide buffer (100 mM Tris-HCl, pH 10.6). The competitive ITC experiments were carried out by titrating 800 μM SNX1_75-92 peptides into 20 μM proteins with 2-fold molar excess SNX2_16-33 peptide preincubated with SNX27 on ice for an hour. For ITC experiment using SNX1_75-92 against hSNX27 wild-type and single-site mutants, 600 μM SNX1_75-92 peptide was titrated into 20 μM hSNX27 proteins.
The ITC experiments were conducted with 1 injection of 0.4 μL followed by a series of 12 injections of 3.2 μL each with 180-second intervals and a stirring speed of 850 rpm. The heat exchange of interactions was obtained through integrating the observed peaks and background correction by subtracting the heats of dilution. Data were analyzed with Malvern software package by fitting and normalized data to a single-site binding model, yielding the thermodynamic parameters Kd, ΔH, ΔG, and −TΔS for all binding experiments. The stoichiometry was refined initially, and if the value was close to 1, then N was set to exactly 1.0 for calculation. All experiments were performed at least twice to guarantee reproducibility of the data.

[4] = system: HeLa cells, EEA1 endosomes; assay: Colocalization of GFP-tagged SNX27 or SNX1 constructs with EEA1 (Pearson); type: cell-based
Procedure: (§3) Cells were fixed in 4% (v/v) PFA for 20 minutes and washed 3 times in PBS and permeabilized with 0.1% (v/v) Triton X-100. For LAMP1 staining, cells were instead permeabilized by submersion in liquid nitrogen for 20 seconds. Fixed cells were blocked in 1% (w/v) BSA and incubated in primary antibody and respective secondary antibody (Alexa Fluor; Thermo Fisher Scientific) in 1% (w/v) BSA.
(§4) Microscopy images were collected with a confocal laser-scanning microscope (SP5 AOBS; Leica Microsystems, Germany) attached to an inverted epifluorescence microscope (DMI6000; […]). A 63× 1.4 NA oil immersion objective (Plan Apochromat BL; Leica Biosystems, Germany) and the standard SP5 system acquisition software and detector were used. Images were captured at room temperature as z stacks with photomultiplier tube detectors with a photocathode made of gallium-arsenide-phosphide (Leica Microsystems) for collecting light emission. Images were captured using Application Suite AF software (version 2.7.3.9723; Leica Microsystems) and then analyzed with the Volocity 6.3 software (PerkinElmer, USA).

[5] = system: HeLa cells, SNX6 endosomes; assay: Colocalization of GFP-tagged SNX27 or SNX1 constructs with SNX6 (Pearson); type: cell-based
Procedure: as §3, §4

[6] = system: HeLa cells, endogenous GLUT1; assay: Cycloheximide degradation assay, GLUT1 level; type: cell-based; details: for GLUT1 level, 0h: 0h (set to 100)
Procedure: as §1, §2

[7] = system: HeLa cells, endogenous ITGA5; assay: Cycloheximide degradation assay, ITGA5 level; type: cell-based; details: for ITGa5 level, 0h: 0h (set to 100)
Procedure: as §1, §2

[8] = 8h relative to 0h = 100, replicate n1, Fig. 6C
[9] = 8h relative to 0h = 100, replicate n2, Fig. 6C
[10] = 8h relative to 0h = 100, replicate n3, Fig. 6C

**Q.** D45K was tested. Which “SNX6 co-immunoprecipitated (quantitative western blot), mean” value (“SNX6 co-immunoprecipitated” for short) [1] did it give?
**A.** 102

**Q.** What about the “SNX27 co-immunoprecipitated (quantitative western blot), mean” value (from here on “SNX27 co-immunoprecipitated”) ([2]; GFP trap) of the same substance?
**A.** 45.07

**Q.** Which results are given for D87K?
**A.** SNX6 co-immunoprecipitated (quantitative western blot), mean [1]: 115.6; SNX27 co-immunoprecipitated (quantitative western blot), mean ([2]; GFP trap): 34.69

**Q.** With E42K as the substance, how does the “SNX6 co-immunoprecipitated” value [1] read?
**A.** 105.5

**Q.** And the “SNX27 co-immunoprecipitated” value ([2]; GFP trap)?
**A.** 52.35

**Q.** Which “SNX6 co-immunoprecipitated” value [1] does the source give for E44K here?
**A.** 113.2

**Q.** What about the “SNX27 co-immunoprecipitated” value ([2]; GFP trap) of the same substance?
**A.** 63.19

**Q.** Which results are given for E84K?
**A.** SNX6 co-immunoprecipitated (quantitative western blot), mean [1]: 104.1; SNX27 co-immunoprecipitated (quantitative western blot), mean ([2]; GFP trap): 45.59

**Q.** For EAGDSDTEGEDIFTGAA [SNX1_35-51], which Kd ([3]; read-out: Kd) is on record?
**A.** 33.4 ± 1.89 µM

**Q.** For “EAGDSDTEGEKIFTGAA [SNX1_35-51(D45K), SNX1 35–51 peptide with charge swap mutation D45K]”, which Kd ([3]; listed as SNX1(D45K)) is on record?
**A.** no detectable binding

**Q.** And the Kd ([3]; listed as hSNX135-51 (D45K))?
**A.** No binding detected

**Q.** With F47K as the substance, how does the “SNX6 co-immunoprecipitated” value [1] read?
**A.** 98.51

**Q.** And the “SNX27 co-immunoprecipitated” value ([2]; GFP trap)?
**A.** 42.86

**Q.** With F89D as the substance, how does the “SNX6 co-immunoprecipitated” value [1] read?
**A.** 109.4

**Q.** And the “SNX27 co-immunoprecipitated” value ([2]; GFP trap)?
**A.** 41.68

**Q.** How did the “reduced binding to SNX27” value ([2]; Fig 3F) turn out when “GFP-SNX1(D45K): full-length GFP-SNX1 point mutant in the first aDLF motif” was run?
**A.** around 50%

**Q.** How did the “SNX27 binding, in words” value ([2]; Fig 3F, S2B Fig, double aDLF mutants in HEK293T, GFP trap) turn out when “GFP-SNX1(D45K,D87K): double mutant targeting key residues in both aDLF motifs of SNX1” was run?
**A.** near undetectable levels

**Q.** Which “reduced binding to SNX27” value ([2]; Fig 3F) does the source give for “GFP-SNX1(E42K): full-length GFP-SNX1 point mutant in the first aDLF motif” here?
**A.** around 50%

**Q.** Which “reduced binding to SNX27” value ([2]; Fig 3F) does the source give for “GFP-SNX1(E44K): full-length GFP-SNX1 point mutant in the first aDLF motif” here?
**A.** around 50%

**Q.** How did the “reduced binding to SNX27” value ([2]; Fig 3F) turn out when “GFP-SNX1(F47K): full-length GFP-SNX1 point mutant in the first aDLF motif” was run?
**A.** around 50%

**Q.** Which “reduced binding to SNX27” value ([2]; Fig 3F) does the source give for “GFP-SNX1(I46K): full-length GFP-SNX1 point mutant in the first aDLF motif” here?
**A.** around 50%

**Q.** With GFP-SNX1: GFP-tagged full-length SNX1 as the substance, how does the “colocalization with EEA1 (SNX1 vs EEA1), mean” value ([4]; mean of n = 3) read?
**A.** 0.4267

**Q.** And the “colocalization with EEA1 (SNX1 vs EEA1)” value ([4]; replicate n1)?
**A.** 0.53

**Q.** What about the “colocalization with EEA1 (SNX1 vs EEA1)” value ([4]; replicate n2) of the same substance?
**A.** 0.34

**Q.** And the “colocalization with EEA1 (SNX1 vs EEA1)” value ([4]; replicate n3)?
**A.** 0.41

**Q.** What about the “colocalization with SNX6 (SNX1 vs SNX6), mean” value ([5]; mean of n = 3) of the same substance?
**A.** 0.6597

**Q.** And the “colocalization with SNX6 (SNX1 vs SNX6)” value ([5]; replicate n1)?
**A.** 0.81

**Q.** And the “colocalization with SNX6 (SNX1 vs SNX6)” value ([5]; replicate n2)?
**A.** 0.506

**Q.** What about the “colocalization with SNX6 (SNX1 vs SNX6)” value ([5]; replicate n3) of the same substance?
**A.** 0.663

**Q.** How did the “SNX6 co-immunoprecipitated” value [1] turn out when I46K was run?
**A.** 90.56

**Q.** And the “SNX27 co-immunoprecipitated” value ([2]; GFP trap)?
**A.** 47.55

**Q.** Which results are given for KO +GFP-SNX1?
**A.** GLUT1 level, 0h ([6]; replicate n1, Fig. 6C): 100; GLUT1 level, 0h ([6]; replicate n2, Fig. 6C): 100; GLUT1 level, 0h ([6]; replicate n3, Fig. 6C): 100; GLUT1 level, 0h, Mean 1 ([6]; 0h, mean of n = 3, Fig. 6C): 100; GLUT1 level, 8h, Mean 2 ([6]; 8h relative to 0h = 100, mean of n = 3, Fig. 6C): 106.2; GLUT1 level, 8h [6, 8]: 90.4645; GLUT1 level, 8h [6, 9]: 112.847; GLUT1 level, 8h [6, 10]: 115.364; ITGa5 level, 0h ([7]; replicate n1, Fig. 6C): 100; ITGa5 level, 0h ([7]; replicate n2, Fig. 6C): 100; ITGa5 level, 0h ([7]; replicate n3, Fig. 6C): 100; ITGa5 level, 0h, Mean 1 ([7]; 0h, mean of n = 3, right-hand (unlabelled) statistics block, Fig. 6C): 100; ITGa5 level, 8h [7, 8]: 98.9429; ITGa5 level, 8h [7, 9]: 105.348; ITGa5 level, 8h [7, 10]: 145.221

**Q.** Which results are given for “TDFEDLEDGESSSTSTVS [SNX2_16-33(DLF/SSS), SNX2 16–33 peptide with triple mutation DLF-SSS]”?
**A.** Kd ([3]; listed as SNX2(DLF-SSS)): no detectable binding; Kd ([3]; listed as hSNX216-33 (DLF-SSS)): No binding detected

**Q.** How did the Kd ([3]; read-out: Kd) turn out when TEVVLDDDREDLFAEATEEVS [SNX2_62-82] was run?
**A.** 22.6 ± 1.89 µM
